Reference: patent US20200087248A1, “Fluoroallylamine Derivative And Use Thereof” (SICHUAN KELUN-BIOTECH BIOPHARMACEUTICAL CO., LTD., priority 2017, published 2020)
Structures can show the parent of a compound that is named as a salt.

Columns and labels:
Caco-2 cells = assay: Caco-2 permeation experiment; format: in vitro ADME; conditions: 2 μM
Protocol: (§1) Caco-2 Permeation Experiment
(§2) Culture medium: 10%FBS+1% unnecessary amino acid+90%DMEM (high glucose)
(§3) Permeation solution (pH 7.4): HBSS (Ca^+, Mg^+)+10 mM Hepes
(§4) Compound reservation solution: an amount of the test compound was weighted and added with a certain amount of DMSO to formulate a 10 mM reservation solution.
(§5) Cells were inoculated to Transwell cells in a quantity of 6*10^4/cm^2, and at the A side (top side), were added with 200 μL of the culture medium, and at the B side (base side), were added with 1000 μL of the culture medium. After the inoculation, the solution was replaced once every 2 days, and the culture was conducted for 21 to 28 day.
(§6) After 21 to 28 days since the inoculation of Caco-2 cells, the transmembrane resistance was measured.
(§7) Permeation experiment: after the transepithelial electrical resistance was measured, the buffer solution at the two sides was removed by suction, then added thereto the solution according to the following system.
(§8) According to the experimental conditions as shown in the following Table 15, the reaction solution in each experimental group was formulated: […]
(§9) Sample treatment: after 2-hours incubation, 50 μL of the permeation solution were sucked up from each side of side A and side B, and equivalent volume of cold acetonitrile was added to terminate the reaction, and the concentrations of the compound at the A and B sides were measured by LC-MS/MS. The apparent permeation (Papp) and the Efflux Ratio were calculated according to the following equations:
(§10) Efflux Ratio=Papp(BA)/Papp (AB)
(§11) wherein, dCr/dt is the integration of the concentration of the compound at the base side realted to time, Vr is the reaction volume at the base side, A is the area of a single layer of cells, being 0.33 cm^2, and C0 is the concentration of the compound at the top side.

[1] = Caco-2 permeation experiment; format: in vitro ADME; conditions: human
Protocol: as §1, §2, §3, §4, §5, §6, §7, §8, §9, §10, §11

[2] = Stability in liver microsomes, rat; format: in vitro ADME
Protocol: (§12) Stability of Liver Microsomes
(§13) Formulation of a compound reservation solution: the test compound, diclofenac acid, testosterone and propafenone were weighted in appropriate amounts, and calibrated by adding about 1 mL of DMSO to provide a 10 mM reservation solution, then stored in a 4° C. refrigerator;
(§14) Formulation of a compound working solution: 10 μL of the reservation solution were added to 990 μL acetonitrile-water (1:1) to provide a middle solution having a concentration of 100 μM, and 120 μL of the middle solution is further diluted with 2880 μL PBS to provide a 4 μM working solution; […]
(§15) After being incubated for a certain period of time, an equivalent volume of cooled acetonitrile (4° C.) was added to terminate the reaction, and LC-MS/MS was used to determine the concentrations of the compound after being incubated in various liver microsomes for different time periods. With the incubation time as the horizontal ordinate and the natural logarithm of the percentages of the remained compound at each time point as the longitudinal coordinate, a diagram was plotted, wherein the slope was the velocity constant (Ke), and the half-life (T1/2) and clearance rate (CLliver) of the compound were calculated according to the following equation to evaluate the staiblity of the compound in the liver microsomes. […]

[3] = Stability in liver microsomes, human; format: in vitro ADME
Protocol: as §12, §13, §14, §15

[4] = Stability in liver microsomes, mouse; format: in vitro ADME
Protocol: as §12, §13, §14, §15

Rat PK experiment = format: in vivo, Male rats; conditions: male; for AUC(0-inf) / Cmax / half-life: rat blood plasma
Protocol: Male rats were intravenously (iv) and intragastrically (po) administered the test compounds respectively, and LC-MS/MS was used to measure the blood plasma concentration of the compound in the bodies of the rat. The main pharmacokinetic parameters were calculated by utilizing WinNonlin 6.3 software.

[5] = Stability in liver microsomes, dog; format: in vitro ADME
Protocol: as §12, §13, §14, §15

For CC1(C)Cc2cc(OC/C(=C/F)CN)ccc2C(=O)N1 [HC38-E, (E)-6-((2-(aminomethyl)-3-fluoroallyl)oxy)-3,3-dimethyl-3,4-dihydroisoquinolin-1(2H)-one hydrochloride], the “Average apparent permeability A to B” value (Caco-2 cells; 120 min, pH 7.4) was “high permeability”, the Efflux ratio (Caco-2 cells; Papp(BA)/Papp(AB)) was “low possibility of active efflux” and the Papp A→B at 120 min, 2 μM ([1]; Caco-2, 120 min, pH 7.4, read-out: Average apparent permeability A to B) was 2.6 ×10⁻⁶ cm/s. For the same molecule, the Papp B→A at 120 min, 2 μM ([1]; Caco-2, 120 min, pH 7.4, read-out: Average apparent permeability B to A) was 3.26 ×10⁻⁶ cm/s, the efflux ratio at 2 h, 2 μM ([1]; Caco-2, pH 7.4, Papp(BA)/Papp(AB)) was 1.26 and the “T1/2 in liver microsomes” value ([2]; Rat) was “long half-life”. The half-life ([2]; rat, liver microsomes, read-out: T1/2 in liver microsomes) was 14.2 h, the “T1/2 in liver microsomes” value [3] was “long half-life” and the half-life ([3]; liver microsomes, read-out: T1/2 in liver microsomes) was 44.6 h. For the same molecule, the “T1/2 in liver microsomes” value ([4]; Mouse) was “long half-life”, the half-life ([4]; mouse, liver microsomes, read-out: T1/2 in liver microsomes) was 13.8 h and the bioavailability (Rat PK experiment; plasma, rat, po 3 mg/kg) was 89.9%. The AUC(0-inf) (Rat PK experiment; iv 3 mg/kg) was 1160 ± 120 ng·h/mL, the Cmax (Rat PK experiment; iv 3 mg/kg) was 1040 ± 181 ng/mL and the half-life (Rat PK experiment; iv 3 mg/kg) was 1.43 ± 0.15 h. For the same molecule, the AUC(0-inf) (Rat PK experiment; po 3 mg/kg) was 1040 ± 129 ng·h/mL, the Cmax (Rat PK experiment; po 3 mg/kg) was 343 ± 24 ng/mL and the half-life (Rat PK experiment; po 3 mg/kg) was 1.37 ± 0.01 h. The “T1/2 in liver microsomes” value ([5]; Dog) was “long half-life” and the half-life ([5]; dog, liver microsomes, read-out: T1/2 in liver microsomes) was 118 h.
